Laboratory results as given in US20210038589A1, “USES, COMPOSITIONS AND METHODS” (priority 2018, published 2021).

Tests used:
[1] = test system: pyramidal cell action potentials in hippocampal area CA3; test: Concomitant LFP and single unit recordings: AP firing and spike-phase coupling after Aβ; format: cell-based, mouse; conditions: inhibitor applied after the application of Aβ
Experimental: Having studied the synaptic effects of two T-type Ca^2+ channel inhibitors, we then proceeded to examine their ability to modulate the synchronization of hippocampal neuronal activity. We performed concomitant recordings of field potentials and single unit recordings to analyze the synchronization of action potentials with the phase of the gamma oscillations (27). […] To determine the spike phase of PC during a gamma oscillation, spike-phase coupling was calculated. […] This is observed as a slight shift to the right in the AP-phase distribution (7A,D). The desynchronization of PC activity is also evidenced by the reduction of the summation vector length (Pmzd: control: 0.3764±0.048, Aβ: 0.226±0.05, n=7, p=0.0078, FIG. 7B; Penfl: control: 0.3976±0.054, Aβ: 0.2661±0.05566, n=8, p=0.0078, FIG. 7E), which is represented by the change in the length of the arrow in FIGS. 7A and D.
Patch-clamp (whole-cell) recordings were performed from visually identified CA3 PC using The SliceScope (Scientifica, UK). Action Potentials (APs) were recorded from pyramidal cells in area CA3 as single units (submerged chamber) using standard ACSF-containing patch electrodes. For EPSC recordings (Vh=−70 mV) a potassium-based intracellular solution was used (in mM): 122.5 K-gluconate, 17.5 KCl, 4 ATPNa, 0.4 GTPNa, 10 HEPES, 0.2 EGTA, 2 MgCl, set to pH 7.2-7.3 with KOH, osmolarity 270-280 mOsm. For IPSC recordings (Vh=0 mV) a cesium-based intracellular solution was used (in mM): 140 CsMeSO4, 10 HEPES, 0.2 EGTA, 4 MGCl, 2 ATPNa, 0.2 GTPNa, 5 QX-314, set to pH 7.2-7.4 with CsOH, osmolarity 270-280 mOsm.
Spike phase-coupling analysis was performed on concomitant LFP recordings and single unit recordings using MATLAB custom-written routines in order to relate the PC spiking activity to ongoing gamma oscillations (48). To do this LFP recordings were pre-processed using a band pass filter set to 20-60 Hz (highpass: RC-single pole, lowpass: RC-single pole) using Clampfit 10.7. AP were detected using an amplitude threshold and the instantaneous phase of gamma oscillation was calculated using a Hilbert transform in order to determine the phase-angle at which each action potential occurred during ongoing oscillations. Phase-angles and gamma oscillations-phases were represented in polar plots and expressed in radians with the peak of the oscillation cycle corresponding to 0π and the valley corresponding to ±π in the polar plots. In order to search for the synchronization level of AP firing, AP phase-angles frequency-distribution were normalized, a Gaussian function was fitted and the half-width at half-maximum was then calculated as a measure of the synchronization level: the more AP are fired on the same phase-angle the more synchronized the neuronal activity is. The preferred phase-angle was calculated by averaging the AP phase-angles distribution of all the experiments and is represented by an arrow in the polar-plots. To test whether neurons fired in a phase-related manner all concomitant recordings were tested for circular uniformity using Rayleigh's test. Only recording with p values below 0.05 were considered for the analysis.

[2] = test system: hippocampal CA3 pyramidal cells; test: Patch-clamp EPSC/IPSC recordings after Aβ; format: cell-based, mouse; conditions: 5 μM, after 1 μM Aβ, 100 nM KA
Experimental: In this study, we recorded spontaneous synaptic activity in hippocampal CA3 pyramidal cells activated with 100 nM KA (20 min) in a submerged recording chamber. […] In contrast to its action on EPSCs, application of Aβ resulted, as previously shown, in decreased GABA receptor mediated IPSCs (FIG. 6D). […] Patch-clamp (whole-cell) recordings were performed from visually identified CA3 PC using The SliceScope (Scientifica, UK). Action Potentials (APs) were recorded from pyramidal cells in area CA3 as single units (submerged chamber) using standard ACSF-containing patch electrodes. For EPSC recordings (Vh=-70 mV) a potassium-based intracellular solution was used (in mM): 122.5 K-gluconate, 17.5 KCl, 4 […], 0.2 EGTA, 2 MgCl, set to pH 7.2-7.3 with KOH, osmolarity 270-280 mOsm. For IPSC recordings (Vh=0 mV) a cesium-based intracellular solution was used (in mM): 140 CsMeSO4, 10 HEPES, 0.2 […]-314, set to pH 7.2-7.4 with CsOH, osmolarity 270-280 mOsm. EPSCs and IPSCs were detected off-line using MiniAnalysis software (Synaptosoft, Decatur, Ga., USA). Charge transfer, event amplitude and inter-event-interval (IEI) were analyzed using Microsoft Excel for Mac 2011 (Microsoft Office) and GraphPad Prism (GraphPad Software, USA) with the result representing average values taken over 1 min periods.

[3] = test system: gamma oscillations in mouse hippocampal slices; test: Rescue of gamma oscillations previously degraded by Aβ in hippocampal slices (submerged chamber); format: cell-based; conditions: 5 μM compound applied after 20 min of 1 μM Aβ, Aβ still present
Experimental: Hippocampal slices were placed in a submerged recording chamber where gamma oscillations were induced by bath perfusion of 100 nM KA and allowed to stabilize for 20-30 min. Continuous recordings of LFP gamma oscillations were performed in 4 different conditions (FIG. 5). All groups were initially activated with Kainate. In a control group of slices oscillations were recorded for 40 min after stabilization without any other compound addition (control, n=5, grey). All other groups were perfused with 1 μM Aβ after stabilization of the oscillations for a minimum of 20 min. For these experiments the concentration of Aβ applied was increased to 1 μM in order to overcome the method-dependent lower signal amplitude due to the submerged recording conditions (8).
Hippocampal slices were placed on a submerged recording chamber where gamma oscillations were induced by bath perfusion of 100 nM Kainate and allowed to stabilize for 20-30 minutes. Continuous recordings of LFP gamma oscillations were performed in 3 different conditions. All groups were initially activated with kainate. In a control group of slices oscillations were recorded for 40 minutes after their stabilization without any other compound addiction (control, n=5; see FIG. 5). All the other groups were perfused with Aβ 1 μM after the stabilization of the oscillations for a minimum of 20 minutes.

[4] = test system: Drosophila melanogaster model expressing pan-neuronally human Aβ1-42 peptide; test: Negative geotaxis climbing assay in Aβ-expressing Drosophila; conditions: for individuals reached the top of the climbing column: ElavArc2E flies, 5 μM in food from day 1 after hatching
Experimental: The data shown represent results from a cohort of flies tested every 10 days for 35 days. Data are presented as average±SEM. Results were tested for significance using ANOVA with Bonferroni Post Test to compare all different groups. […] Viable flies were counted daily to assess differences in longevity between wild type and experimental flies and between experimental not treated or treated with the compounds. […] Briefly, flies display a negative geotaxis response when given a mechanical stimulus. When tapped to the bottom of a vial, flies normally orient themselves rapidly and begin to climb to the top. […] FIG. 11A). […] Approximately 10 flies were placed in an empty plastic vial. The vial was gently tapped to knock the flies to the bottom and the flies were recorded during their subsequent climbing to the top of the vial (negative geotaxis). […] The data shown represent results from a cohort of flies tested every 10 days for 35 days.

SMILES | AP count (AP firing frequency) [1] [Hz] | preferred phase angle [1] [radians] | summation vector length [1] | rescue of Aβ induced increase in EPSCs frequency, amplitude and charge transfer [2] | rescue of Aβ-induced decrease in IPSCs (frequency, amplitude, charge transfer) [2] | gamma power after treatment application, relative to Aβ [3] | individuals reached the top of the climbing column ([4]; at 5 days) [%] | individuals reached the top of the climbing column ([4]; at 15 days) [%] | individuals reached the top of the climbing column ([4]; at 25 days) [%] | effect of the drug on control strains in the behavioural test ([4]; control fly strains given the drug)
OC1(c2ccc(Cl)c(C(F)(F)F)c2)CCN(CCCC(c2ccc(F)cc2)c2ccc(F)cc2)CC1 [Penfluridol] | 1.79±0.43 | 4.09±0.2 | 0.355±0.05 | completely rescued | neither Pimozide nor Penfluridol were able to rescue | 2.29±0.38 of Aβ | – | – | – | –
O=c1[nH]c2ccccc2n1C1CCN(CCCC(c2ccc(F)cc2)c2ccc(F)cc2)CC1 [Pimozide] | 2.23±0.51 | 4.180±0.15 | 0.335±0.072 | – | – | – | 97.4±0.3 | 83.2±0.6 | 38.3±0.5 | no adverse effect
